The text below walks through data of patent US12721838B2 (Henry Ford Health System, priority 2020, dated 2026).

“And” between values parts separate entries of the source, which are not always exact repeats. Equal values may be shown once. Read-outs that look alike come from different tables or passages of the source.

The conditions of series [1]: cited from earlier work.
The subject of series [2] is NCI-H226, SK-MES-1, NCI-H2228 and NCI-H596 lung cancer cell lines. Kind of series: 72-hour cell viability assay in lung cancer cell lines. Type of series: cell-based, human.
For series [3] the following is noted: cited from earlier work. The source holds these as a separate data set.
For series [4], the system named is LNCaP-ENR and MR49F ERPC cells. Kind of series: In vitro invasion through extracellular matrix. Format: cell-based, human. The settings on record: LNCaP-ENR and MR49F ERPC cells (data not shown).
The test system of series [5] is LNCaP-ENR cells. Kind of series: Cell cycle distribution. Type of series: cell-based, human. The settings on record: ERPC cells; FIG. 16 at 8 μM.
In series [6] the test system is ERPC cells. As to the kind of experiment: DNA degradation assay. Format: cell-based, human. From the text:
FIG. 17 depicts a graph showing the apoptotic effects of DCV as measured by DNA degradation assay.

Series [7] has as its system LNCaP-ENR cells. Kind of series: MTS/PES cell viability assay, ERPC cells. Type of series: cell-based, human. The method, then: Plates were incubated for 72 hours at 37° C. in a CO2 incubator. Cell viability was measured by MTS/PES cell titer assay (Promega Corp., Madison, WI).
For series [8] the following is noted: cited from earlier work. This is another data set of the same source.
Series [9] deals with c-JNK, caspase 3. Kind of series: Activation of c-JNK and caspase 3. Type of series: cell-based, human. The settings on record: LNCaP-ENR cells. The method, then: To explore the underlying mechanism of DCV-induced apoptosis in ERPC cells, the effect of DCV on Jun N-terminal kinases (JNKs) was analyzed. JNKs play a critical role in apoptotic pathways. […] Both caspase-dependent and caspase-independent apoptotic cell death processes are known.

The test system of series [10] is pAkt, Bcl-xL, Survivin, and FOXO3. As to the kind of experiment: Western blot of TRIB2 downstream targets in LNCaP-ENR cells. The settings on record: 12 μM, 24 hours. Type of series: cell-based, human. The method, then:
LNCaP-ENR cells were treated with varying doses (4 μM, 8 μM, or 12 μM) of DCV for 24 hours. Effects on TRIB2 protein levels and its downstream targets (e.g., pAkt, Bcl-xL, Survivin, and FOXO3) were analyzed by Western blot. GAPDH was used as loading control. Protein levels of TRIB2, pAKT (S473), Bcl-xL, and Survivin were reduced in cells treated with 12 μM of DCV compared to control-treated cells (FIG. 3A). Levels of FOXO3 protein were increased at 12 μM of DCV treatment compared to control treatment. This was expected, as FOXO3 level is known to be decreased by Trib2. These effects on cellular protein levels were DCV concentration-dependent, with the most pronounced effects observed at the highest concentration tested (12 μM).
For orientation: In western blotting, separated proteins are transferred to a membrane and probed.

In series [11] the test system is LNCaP-ENR cells. Kind of series: Apoptosis by Annexin V binding, flow cytometry. Format: cell-based, human. The settings on record: LNCaP-ENR cells, 8 μM, 24 hours, flow cytometry. The method, then: To test DCV effects on cancer cell apoptosis, LNCaP-ENR cells were treated with 8 μM DCV for 24 hours and analyzed by flow cytometry. Treatment with DCV indicated increased Annexin V binding, a read-out for apoptosis (FIG. 3C).

In series [12] the target is T1, luciferase (Renilla reniformis, UniProt P27652).
T1 construct: expressed in transfected cells; host or cells: human foreskin fibroblasts (HFF)
T1 sequence (P27652 1-311): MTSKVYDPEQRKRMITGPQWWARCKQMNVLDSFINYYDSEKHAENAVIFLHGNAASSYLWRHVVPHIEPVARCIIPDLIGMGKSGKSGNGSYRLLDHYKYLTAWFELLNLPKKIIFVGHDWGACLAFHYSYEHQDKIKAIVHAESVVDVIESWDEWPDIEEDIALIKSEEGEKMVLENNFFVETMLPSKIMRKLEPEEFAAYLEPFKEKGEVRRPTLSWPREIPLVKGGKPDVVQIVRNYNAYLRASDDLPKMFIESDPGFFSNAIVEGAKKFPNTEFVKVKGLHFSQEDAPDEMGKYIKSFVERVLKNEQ
Kind of series: Counter-screen with control luciferase-transfected HFF cells. Type of series: cell-based. The method, then: Human foreskin fibroblast cells (HFF) cells were transfected with a Trib2-Luciferase (Luc-Trib2) fusion construct. Cells were plated in 96-well tissue culture plates and treated with compounds (10 μM) for 24 hours. Luciferase activity was measured using an EnduRen™ Live cell substrate kit (commercially available from PROMEGA CORP.®, Madison, WI). […] For further development, selected compounds were counter-screened with control luciferase-transfected HFF cells.
The main hurdle to develop agents to inhibit Trib2 is the lack of a quick and easy assay procedure to effectively screen large number of compounds. To overcome this problem, the present disclosure provides a design for a new assay system to measure the active state of Trib2 protein. The present disclosure describes a Trib2-luciferase gene construct by combining the full length human Trib2 gene with the luciferase gene from Renilla. Destabilization of the three-dimensional conformation of the resultant Trib2-luc fusion protein can deliver reportable outcome via alteration in the enzymatic activity of luciferase. A second screen was designed to eliminate compounds that affects the activity of only luciferase. […] Thus, the luciferase-based assay system (involving first screen and a counter-screen) of the present disclosure emerges as an effective way to identify Trib2-targeting drugs using simple gene transfected cell lines in culture.
Here, the screening strategy used to select compounds based on inhibition of luciferase activity in Trib2-Luc cells, but not in Luc cells. Compounds screened included a representative set of 104 FDA-approved compounds on Trib2-Luciferase fusion construct-transfected HFF cells are shown here. Cells were treated with compounds (10 μM) for 24 hours and measured luciferase activity using a kit from Promega Corp. (Madison, WI). For further development selected compounds are counter-screened with control luciferase-transfected HFF cells.

As to `COC(=O)N[C@H](C(=O)N1CCC[C@H]1c1nc(-c2ccc(-c3ccc(-c4c[nH]c([C@@H]5CCCN5C(=O)[C@@H](NC(=O)OC)C(C)C)n4)cc3)cc2)c[nH]1)C(C)C` [Daclatasvir, 4,4′-bis[2-((2S)-1-{(2S)-2-[(methoxycarbonyl)amino]-3-methylbutanoyl}-2-pyrrolidinyl)-1H-imidazol-4-yl]-1,1′-biphenyl], in series [1], the “solubility in aqueous solvents” value was “freely soluble”. Also, the “killing of lung cancer cells” value in series [2] was “effectively kills”. The tolerability result in series [3] (100 mg po daily) was “well tolerated”. Besides, the “median peak plasma concentration” value in series [3] (after one dose of 60 mg, listed as DCV) was ~ 2 μg/ml and 2.5 μM. For the same compound, in series [3] (in vivo), the mean terminal half-life is 12 to 15 h, the “time to peak plasma concentrations after dosing” value was 1 to 2 h and the “time to steady state levels” value is listed as “after three days of administration”. Also, the “in vitro invasion through extracellular matrix” value in [4] is given as “dramatically decreases”. Also, the cell cycle progression result in [5] was “arresting them at G0/G1 phase”. In addition, in [6], the “degradation of chromatin DNA” value is reported as “triggers degradation of chromatin DNA to nucleosomal fragments”. For the same compound, the Cell viability result in series [7] (LNCaP-ENR cells, varying doses, 72 hours, MTS/PES) is on record as “effectively decreased”. In series [7] (target steady state plasma concentration of planned trial), the “effective concentration in the pre-clinical prostate cancer modeling” value worked out at 4 µM. Further, in series [8] (delivered orally), the uptake rate result is on record as “about 67%”. Also, the protein bound in [8] (in vivo) was ~ 99%. For the same compound, in series [8] (mammalian hosts), the half-life entry is listed as “about 15 hours” and the tolerability entry was “very well tolerated”. Further, the “activation of caspase 3” value in series [9] is on record as “induces activation”. In addition, the “activation of c-JNK” value in series [9] (dose-dependent) is “rapid and robust activation”. Besides, the “Levels of FOXO3 protein” value in series [10] (vs control treatment) was “increased”. The “Protein levels of pAKT (S473), Bcl-xL, and Survivin” value in series [10] (vs control-treated cells) is reported as “reduced”. Moreover, in [11], the “Annexin V binding” value is given as “increased”. Besides, the “inhibition of control luciferase activity (counter-screen, without Trib2)” value (“inhibition … (counter-screen, without Trib2)” for short) in [12] was “passed counter-screen tests”. In series [12] (listed as DCV), the “inhibition … (counter-screen, without Trib2)” value is “does not inhibit control luciferase activity”. For the same compound, the “inhibition … (counter-screen, without Trib2)” value in [12] (listed as daclatasvir) is recorded as “does not inhibit luciferase activity in the absence of Trib2”.
